Patent US10882859B2, “Kinase inhibitors” (Topivert Pharma Limited, priority 2015, dated 2021)

tested on: CD3/IL2 stimulated PBMC cells; test: IFNγ release from CD3/IL2 stimulated PBMC cells; assay type: cell-based; conditions: Homo sapiens, CD3/IL2 stimulation, 48 h, ELISA
Experimental: PBMCs from healthy subjects are separated from whole blood using a density gradient (Lymphoprep, Axis-Shield Healthcare). Cells are added to a 96 well plate, and compound at the desired concentration added 2 hours prior to stimulation with a mixture of monoclonal antibody to CD3 (1 μg/ml, eBioscience) and human recombinant IL2 (10 ng/ml, Peprotech). After 48 hours incubation under normal tissue culture conditions, supernatants are collected and IFNγ release determined by Sandwich ELISA (Duo-set, R&D System). The IC50 is determined from the dose response curve.

Compared with CCc1cc(O)c(F)cc1-c1ccc2c(-c3nc4c([nH]3)CCN(C(=O)N3CCc5ccccc53)C4)n[nH]c2c1 [Example 2(b), (2-(6-(2-ethyl-5-fluoro-4-hydroxyphenyl)-1H-indazol-3-yl)-1,4,6,7-tetrahydro-5H-imidazo[4,5-c]pyridin-5-yl)(indolin-1-yl)methanone], CCc1cc(O)c(F)cc1-c1ccc2c(-c3nc4c([nH]3)CCN(C(=O)Nc3ccccc3)C4)n[nH]c2c1 [Example 4(f), 2-(6-(2-ethyl-5-fluoro-4-hydroxyphenyl)-1H-indazol-3-yl)-N-phenyl-6,7-dihydro-1H-imidazo[4,5-c]pyridine-5(4H)-carboxamide] is 1.6-fold lower in IC50: 31.3 nM for the first, 19.6 nM for the second.

Going from CCc1cc(O)c(F)cc1-c1ccc2c(-c3nc4c([nH]3)CCN(C(=O)N3CCCC3)C4)n[nH]c2c1 [Example 2(d), (2-(6-(2-ethyl-5-fluoro-4-hydroxyphenyl)-1H-indazol-3-yl)-1,4,6,7-tetrahydro-5H-imidazo[4,5-c]pyridin-5-yl)(pyrrolidin-1-yl)methanone] to CCc1cc(O)c(F)cc1-c1ccc2c(-c3nc4c([nH]3)CCN(S(=O)(=O)N3CCC(C(=O)NC)CC3)C4)n[nH]c2c1 [Example 6(b), 1-((2-(6-(2-ethyl-5-fluoro-4-hydroxyphenyl)-1H-indazol-3-yl)-6,7-dihydro-1H-imidazo[4,5-c]pyridin-5(4H)-yl)sulfonyl)-N-methylpiperidine-4-carboxamide], the IC50 rises from 5.1 nM to 100 nM (20-fold).

CCc1cc(O)c(F)cc1-c1ccc2c(-c3nc4c([nH]3)CCN(C(=O)Nc3ccc(S(C)(=O)=O)cc3)C4)n[nH]c2c1 [Example 4(b), 2-(6-(2-ethyl-5-fluoro-4-hydroxyphenyl)-1H-indazol-3-yl)-N-(4-(methylsulfonyl)phenyl)-6,7-dihydro-1H-imidazo[4,5-c]pyridine-5(4H)-carboxamide] and CCc1cc(O)c(F)cc1-c1ccc2c(-c3nc4c([nH]3)CCN(C(=O)Nc3c(C)noc3C)C4)n[nH]c2c1 [Example 4(c), N-(3,5-dimethylisoxazol-4-yl)-2-(6-(2-ethyl-5-fluoro-4-hydroxyphenyl)-1H-indazol-3-yl)-6,7-dihydro-1H-imidazo[4,5-c]pyridine-5(4H)-carboxamide] are within 1.5-fold of each other in IC50: 54.8 nM for the first, 44.2 nM for the second.

Compound CCc1cc(O)c(F)cc1-c1ccc2c(-c3nc4c([nH]3)CN(C(=O)Nc3cccc5nsnc35)CC4)n[nH]c2c1 [Example 4(e), N-(benzo[c][1,2,5]thiadiazol-4-yl)-2-(6-(2-ethyl-5-fluoro-4-hydroxyphenyl)-1H-indazol-3-yl)-6,7-dihydro-1H-imidazo[4,5-c]pyridine-5(4H)-carboxamide] has an IC50 of 30.9 nM.
